Measured values reported in patent publication US12558432B2, “Biocompatible polymeric drug carriers for delivering active agents” (CIS BIOPHARMA AG, priority 2019, dated 2026).

Test system: cell culture
Test: cell culture experiments (toxic effects)
Format: cell-based
Conditions: at concentrations of up to 5 mM

## C=CC(=O)NCCCC[C@H](N)C(=O)O [acryloyl-lysine, (S)-6-acrylamido-2-aminohexanoic acid]
  toxic effects in cell culture experiments: do not exhibit any toxic effects
